According to ChEMBL document CHEMBL1130744, “Potent and selective inhibitors of the proteasome: dipeptidyl boronic acids” (Bioorg Med Chem Lett, 1998):
Non-standard residues stand in square brackets, D forms with d. Residues, ends and D or L forms follow the SMILES beside them. *: point of attachment. 1Nal = N[C@@H](Cc1cccc2ccccc12)C(=O)O; 2Nal = N[C@@H](Cc1ccc2ccccc2c1)C(=O)O; Cbz = O=C(OCc1ccccc1)*; CF3 = FC(F)(F)*; CH2Cl = ClC*

Columns and labels:
[1] = biological target: Proteasome; assay: Inhibitory activity against 20S Proteasome; assay type: subcellular, Oryctolagus cuniculus
[2] = biological target: T1, Neutrophil elastase (Homo sapiens, UniProt P08246); assay: Inhibitory activity against human leukocyte elastase
T1 sequence (P08246 whole entry): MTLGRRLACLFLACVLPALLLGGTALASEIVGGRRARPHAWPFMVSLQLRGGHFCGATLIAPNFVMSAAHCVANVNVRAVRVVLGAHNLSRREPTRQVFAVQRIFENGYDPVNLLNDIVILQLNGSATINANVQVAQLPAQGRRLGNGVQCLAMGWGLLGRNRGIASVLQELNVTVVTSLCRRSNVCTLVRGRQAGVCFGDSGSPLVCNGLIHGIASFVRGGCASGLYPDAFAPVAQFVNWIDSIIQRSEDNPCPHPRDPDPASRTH

[3] = biological target: Prothrombin (Homo sapiens, UniProt P00734); assay: Inhibitory activity against thrombin
[4] = biological target: Chymotrypsinogen B (Homo sapiens, UniProt P17538); assay: Inhibitory activity against human Chymotrypsinogen
Chymotrypsinogen B, sequence (P17538 34-164 limits assumed, other chains not shown): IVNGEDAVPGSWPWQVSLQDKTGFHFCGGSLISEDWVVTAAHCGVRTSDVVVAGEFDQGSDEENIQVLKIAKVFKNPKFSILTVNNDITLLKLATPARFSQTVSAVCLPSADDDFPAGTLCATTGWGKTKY
Chymotrypsinogen B, sequence (P17538 167-263 limits assumed, other chains not shown): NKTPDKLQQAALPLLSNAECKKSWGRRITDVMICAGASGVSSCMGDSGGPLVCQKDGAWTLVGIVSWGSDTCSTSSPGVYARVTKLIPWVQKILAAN

[5] = biological target: T2, Cathepsin G (Homo sapiens, UniProt P08311); assay: Inhibitory activity against human cathepsin G
T2 sequence (P08311 whole entry): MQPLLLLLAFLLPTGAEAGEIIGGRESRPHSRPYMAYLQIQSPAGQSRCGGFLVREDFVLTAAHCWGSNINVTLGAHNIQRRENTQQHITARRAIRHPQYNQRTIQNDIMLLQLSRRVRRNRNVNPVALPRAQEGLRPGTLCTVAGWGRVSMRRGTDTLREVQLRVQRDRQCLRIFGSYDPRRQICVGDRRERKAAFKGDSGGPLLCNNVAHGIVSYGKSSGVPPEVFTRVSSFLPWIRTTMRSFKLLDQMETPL

[6] = biological target: Cathepsin B (Homo sapiens, UniProt P07858); assay: Inhibitory activity against Cathepsin B

Compound	Ki [1]	other results
CC(C)C[C@H](NC(=O)OCc1ccccc1)C(=O)N[C@@H](CC(C)C)C(=O)NCC=O (Cbz-Leu-Leu-Gly-aldehyde)	3800 nM	
CC(C)C[C@@H](C=O)NC(=O)[C@H](CC(C)C)NC(=O)[C@H](CC(C)C)NC(=O)OCc1ccccc1 [MG-132] (Cbz-Leu-Leu-Leu-aldehyde)	4 nM	
CC(C)C[C@H](NC(=O)OCc1ccccc1)C(=O)N[C@@H](CC(C)C)C(=O)N[C@H](C=O)Cc1ccc2ccccc2c1 (Cbz-Leu-Leu-[2Nal]-aldehyde)	25 nM	
CC(C)C[C@@H](C=O)NC(=O)[C@H](Cc1ccccc1)NC(=O)c1cnccn1	1600 nM	
CCOC(=O)C(=O)C(=O)[C@H](CC(C)C)NC(=O)[C@H](CC(C)C)NC(=O)[C@H](CC(C)C)NC(=O)OCc1ccccc1	45 nM	
CC(C)C[C@H](NC(=O)[C@H](Cc1cccc2ccccc12)NC(=O)c1cnccn1)B(O)O	0.18 nM	
CC(C)C[C@@H](C=O)NC(=O)[C@H](Cc1cccc2ccccc12)NC(=O)c1cnccn1	97 nM	
CC(C)C[C@H](NC(=O)OCc1ccccc1)C(=O)N[C@@H](CC(C)C)C(=O)N[C@@H](CC(C)C)C(=O)C(F)(F)F (Cbz-Leu-Leu-Leu-CF3)	1400 nM	
CC(C)C[C@@H](C=O)NC(=O)[C@H](CC(C)C)NC(=O)[C@H](Cc1ccc2ccccc2c1)NC(=O)OCc1ccccc1 (Cbz-[2Nal]-Leu-Leu-aldehyde)	0.24 nM	
CC(C)C[C@@H](C=O)NC(=O)[C@H](Cc1cccc2ccccc12)NC(=O)[C@H](Cc1ccc2ccccc2c1)NC(=O)OCc1ccccc1 (Cbz-[2Nal]-[1Nal]-Leu-aldehyde)	0.015 nM	
CC(C)C[C@H](NC(=O)[C@H](Cc1ccccc1)NC(=O)c1cnccn1)B(O)O [BORTEZOMIB]		Ki [2]: 2300 nM; Ki [3]: 13000 nM; Ki [4]: 320 nM; Ki [5]: 630 nM
CC(C)C[C@H](NC(=O)OCc1ccccc1)C(=O)N[C@@H](CC(C)C)C(=O)N[C@@H](C)C=O (Cbz-Leu-Leu-Ala-aldehyde)	210 nM	
CC[C@@H](C)[C@@H](C=O)NC(=O)[C@H](CC(C)C)NC(=O)[C@H](CC(C)C)NC(=O)OCc1ccccc1	130 nM	
CC(C)C[C@H](NC(=O)OCc1ccccc1)C(=O)N[C@@H](CC(C)C)C(=O)N[C@@H](CC(C)C)C(=O)c1nc2ccccc2o1	214 nM	
CC(C)C[C@H](NC(=O)[C@H](CC(C)C)NC(=O)[C@H](CC(C)C)NC(=O)OCc1ccccc1)C(=O)CCl (Cbz-Leu-Leu-Leu-CH2Cl)	22000 nM	
CC(C)C[C@H](NC(=O)[C@H](CC(C)C)NC(=O)[C@H](CC(C)C)NC(=O)OCc1ccccc1)B(O)O		Ki [6]: 6.1 nM
